System: Her2
Test: Degradation of Her2 in BT-474 cells, Western blot (Method 1)
Format: cell-based, human
Conditions: 0.5 μM, overnight, positive control
Description: Human high-Her2 breast carcinoma BT474 (HTB-20), SK-BR-3 (HTB-30) and MCF-7 breast carcinoma (HTB-22) from American Type Culture Collection, VA, USA were grown in Dulbecco's modified Eagle's medium with 4 mM L-glutamine and antibiotics (100 IU/ml penicillin and 100 ug/ml streptomycine; GibcoBRL). To obtain exponential cell growth; cells were trypsinized, counted and seeded at a cell density of 0.5×10^6 cells/ml regularly, every 3 days. All experiments were performed on day 1 after cell passage.
BT-474 cells are treated with 0.5 μM, 2 μM, or 5 μM of 17AAG (a positive control) or 0.5 μM, 2 μM, or 5 μM of a compound of the invention overnight in DMEM medium. After treatment, each cytoplasmic sample is prepared from 1×10^6 cells by incubation of cell lysis buffer (#9803, cell Signaling Technology) on ice for 10 minutes. The resulting supernatant used as the cytosol fractions is dissolved with sample buffer for SDS-PAGE and run on a SDS-PAGE gel, blotted onto a nitrocellulose membrane by using semi-dry transfer. Non-specific binding to nitrocellulose is blocked with 5% skim milk in TBS with 0.5% Tween at room temperature for 1 hour, then probed with anti-Her2/ErB2 mAb (rabbit IgG, #2242, Cell Signaling) and anti-Tubulin (T9026, Sigma) as housekeeping control protein. […]

C=CCNC1=C2C[C@@H](C)C[C@H](OC)[C@H](O)[C@@H](C)/C=C(\C)[C@H](OC(N)=O)[C@@H](OC)/C=C\C=C(/C)C(=O)NC(=CC1=O)C2=O [Compound 17AAG, 17-allylamino-17-demethoxygeldanamycin]
degradation of Her2: partial degradation of Her2

— US8299107B2, “Triazole compounds that modulate HSP90 activity” (Synta Pharmaceuticals Corporation, priority 2007, dated 2012)
